Experimental data reported in the NIST ThermoML archive (doi:10.1021/acs.jced.7b00769).

Test: xn = mol fraction of the nth substance listed
Details: Gas, isochoric method

FC(F)(F)/C=C/Cl [(E)-1-chloro-3,3,3-trifluoroprop-1-ene] + CC(C)C
Details	specific volume [m3/kg]
303.15 K, 113.3 kPa, x2 = 0.125	0.174
303.15 K, 186.5 kPa, x2 = 0.564	0.1429
308.15 K, 115.4 kPa, x2 = 0.125	0.1741
308.15 K, 190.1 kPa, x2 = 0.564	0.1429
313.15 K, 117.5 kPa, x2 = 0.125	0.1741
313.15 K, 193.7 kPa, x2 = 0.564	0.143
313.15 K, 197.4 kPa, x2 = 0.453	0.1261
318.15 K, 119.6 kPa, x2 = 0.125	0.1742
318.15 K, 197.5 kPa, x2 = 0.564	0.143
318.15 K, 200.9 kPa, x2 = 0.453	0.1262
318.15 K, 340.9 kPa, x2 = 0.746	0.0926
323.15 K, 121.8 kPa, x2 = 0.125	0.1742
323.15 K, 200.9 kPa, x2 = 0.564	0.143
323.15 K, 204.5 kPa, x2 = 0.453	0.1262
323.15 K, 347.6 kPa, x2 = 0.746	0.0926
328.15 K, 123.8 kPa, x2 = 0.125	0.1742
328.15 K, 204.3 kPa, x2 = 0.564	0.143
328.15 K, 208 kPa, x2 = 0.453	0.1262
328.15 K, 353.9 kPa, x2 = 0.746	0.0926
333.15 K, 125.8 kPa, x2 = 0.125	0.1743
333.15 K, 207.8 kPa, x2 = 0.564	0.1431
333.15 K, 211.4 kPa, x2 = 0.453	0.1262
333.15 K, 360.6 kPa, x2 = 0.746	0.0926
333.15 K, 648.1 kPa, x2 = 0.865	0.0535
338.15 K, 128.2 kPa, x2 = 0.125	0.1743
338.15 K, 211.1 kPa, x2 = 0.564	0.1431
338.15 K, 214.9 kPa, x2 = 0.453	0.1263
338.15 K, 366.9 kPa, x2 = 0.746	0.0926
338.15 K, 576.1 kPa, x2 = 0.644	0.0499
338.15 K, 661.4 kPa, x2 = 0.865	0.0535
343.15 K, 130.2 kPa, x2 = 0.125	0.1744
343.15 K, 214.6 kPa, x2 = 0.564	0.1431
343.15 K, 218.5 kPa, x2 = 0.453	0.1263
343.15 K, 373.2 kPa, x2 = 0.746	0.0927
343.15 K, 587.5 kPa, x2 = 0.644	0.0499
343.15 K, 674.5 kPa, x2 = 0.865	0.0536
348.15 K, 132.2 kPa, x2 = 0.125	0.1744
348.15 K, 218 kPa, x2 = 0.564	0.1432
348.15 K, 222 kPa, x2 = 0.453	0.1263
348.15 K, 379.5 kPa, x2 = 0.746	0.0927
348.15 K, 598.7 kPa, x2 = 0.644	0.0499
348.15 K, 687.5 kPa, x2 = 0.865	0.0536
353.15 K, 134.4 kPa, x2 = 0.125	0.1744
353.15 K, 221.4 kPa, x2 = 0.564	0.1432
353.15 K, 225.5 kPa, x2 = 0.453	0.1264
353.15 K, 385.8 kPa, x2 = 0.746	0.0927
353.15 K, 609.8 kPa, x2 = 0.644	0.0499
353.15 K, 700.5 kPa, x2 = 0.865	0.0536
358.15 K, 136.3 kPa, x2 = 0.125	0.1745
358.15 K, 224.6 kPa, x2 = 0.564	0.1432
358.15 K, 229 kPa, x2 = 0.453	0.1264
358.15 K, 391.8 kPa, x2 = 0.746	0.0927
358.15 K, 620.8 kPa, x2 = 0.644	0.0499
358.15 K, 713.3 kPa, x2 = 0.865	0.0536
363.15 K, 138.3 kPa, x2 = 0.125	0.1745
363.15 K, 228.1 kPa, x2 = 0.564	0.1433
363.15 K, 232.1 kPa, x2 = 0.453	0.1264
363.15 K, 398.1 kPa, x2 = 0.746	0.0927
363.15 K, 631.1 kPa, x2 = 0.644	0.05
363.15 K, 726.1 kPa, x2 = 0.865	0.0536
368.15 K, 140.4 kPa, x2 = 0.125	0.1745
368.15 K, 231.5 kPa, x2 = 0.564	0.1433
368.15 K, 235.6 kPa, x2 = 0.453	0.1264
368.15 K, 404.2 kPa, x2 = 0.746	0.0928
368.15 K, 642.6 kPa, x2 = 0.644	0.05
368.15 K, 738.7 kPa, x2 = 0.865	0.0536
373.15 K, 142.3 kPa, x2 = 0.125	0.1746
373.15 K, 234.8 kPa, x2 = 0.564	0.1433
373.15 K, 239.1 kPa, x2 = 0.453	0.1265
373.15 K, 410.7 kPa, x2 = 0.746	0.0928
373.15 K, 653.2 kPa, x2 = 0.644	0.05
373.15 K, 751.4 kPa, x2 = 0.865	0.0536
378.15 K, 144.4 kPa, x2 = 0.125	0.1746
378.15 K, 238.2 kPa, x2 = 0.564	0.1434
378.15 K, 242.6 kPa, x2 = 0.453	0.1265
378.15 K, 416.9 kPa, x2 = 0.746	0.0928
378.15 K, 664.1 kPa, x2 = 0.644	0.05
378.15 K, 763.9 kPa, x2 = 0.865	0.0536
383.15 K, 146.5 kPa, x2 = 0.125	0.1747
383.15 K, 241.7 kPa, x2 = 0.564	0.1434
383.15 K, 246.4 kPa, x2 = 0.453	0.1265
383.15 K, 423.2 kPa, x2 = 0.746	0.0928
383.15 K, 675 kPa, x2 = 0.644	0.05
383.15 K, 776.5 kPa, x2 = 0.865	0.0536

F/C=C\C(F)(F)F [(Z)-1,3,3,3-tetrafluoro-1-propene] + CC(C)C
Details	specific volume [m3/kg]
303.15 K, 145.9 kPa, x2 = 0.118	0.152
303.15 K, 155.7 kPa, x2 = 0.222	0.1514
303.15 K, 206.5 kPa, x2 = 0.427	0.127
303.15 K, 213.5 kPa, x2 = 0.51	0.1286
308.15 K, 148.7 kPa, x2 = 0.118	0.152
308.15 K, 158.6 kPa, x2 = 0.222	0.1514
308.15 K, 210.5 kPa, x2 = 0.427	0.127
308.15 K, 217.4 kPa, x2 = 0.51	0.1286
313.15 K, 151.4 kPa, x2 = 0.118	0.1521
313.15 K, 161.5 kPa, x2 = 0.222	0.1515
313.15 K, 214.4 kPa, x2 = 0.427	0.1271
313.15 K, 221.3 kPa, x2 = 0.51	0.1286
313.15 K, 398.1 kPa, x2 = 0.658	0.0757
318.15 K, 154 kPa, x2 = 0.118	0.1521
318.15 K, 164.3 kPa, x2 = 0.222	0.1515
318.15 K, 218.3 kPa, x2 = 0.427	0.1271
318.15 K, 225.2 kPa, x2 = 0.51	0.1287
318.15 K, 362.3 kPa, x2 = 0.725	0.0906
318.15 K, 406.6 kPa, x2 = 0.658	0.0758
323.15 K, 156.8 kPa, x2 = 0.118	0.1521
323.15 K, 167.2 kPa, x2 = 0.222	0.1515
323.15 K, 222.2 kPa, x2 = 0.427	0.1271
323.15 K, 229.2 kPa, x2 = 0.51	0.1287
323.15 K, 369.1 kPa, x2 = 0.725	0.0906
323.15 K, 414.5 kPa, x2 = 0.658	0.0758
328.15 K, 159.4 kPa, x2 = 0.118	0.1522
328.15 K, 170 kPa, x2 = 0.222	0.1516
328.15 K, 226 kPa, x2 = 0.427	0.1271
328.15 K, 233.1 kPa, x2 = 0.51	0.1287
328.15 K, 375.8 kPa, x2 = 0.725	0.0906
328.15 K, 423.1 kPa, x2 = 0.658	0.0758
333.15 K, 162 kPa, x2 = 0.118	0.1522
333.15 K, 172.7 kPa, x2 = 0.222	0.1516
333.15 K, 229.8 kPa, x2 = 0.427	0.1272
333.15 K, 237 kPa, x2 = 0.51	0.1287
333.15 K, 382.5 kPa, x2 = 0.725	0.0907
333.15 K, 430.7 kPa, x2 = 0.658	0.0758
338.15 K, 164.6 kPa, x2 = 0.118	0.1522
338.15 K, 175.4 kPa, x2 = 0.222	0.1516
338.15 K, 233.6 kPa, x2 = 0.427	0.1272
338.15 K, 240.9 kPa, x2 = 0.51	0.1288
338.15 K, 389.1 kPa, x2 = 0.725	0.0907
338.15 K, 438.4 kPa, x2 = 0.658	0.0758
343.15 K, 167.2 kPa, x2 = 0.118	0.1523
343.15 K, 178.2 kPa, x2 = 0.222	0.1517
343.15 K, 237.3 kPa, x2 = 0.427	0.1272
343.15 K, 244.7 kPa, x2 = 0.51	0.1288
343.15 K, 395.8 kPa, x2 = 0.725	0.0907
343.15 K, 446 kPa, x2 = 0.658	0.0758
348.15 K, 169.8 kPa, x2 = 0.118	0.1523
348.15 K, 180.8 kPa, x2 = 0.222	0.1517
348.15 K, 241.1 kPa, x2 = 0.427	0.1272
348.15 K, 248.6 kPa, x2 = 0.51	0.1288
348.15 K, 402.5 kPa, x2 = 0.725	0.0907
348.15 K, 453.6 kPa, x2 = 0.658	0.0759
353.15 K, 172.5 kPa, x2 = 0.118	0.1523
353.15 K, 183.7 kPa, x2 = 0.222	0.1517
353.15 K, 244.7 kPa, x2 = 0.427	0.1273
353.15 K, 252.4 kPa, x2 = 0.51	0.1288
353.15 K, 409.1 kPa, x2 = 0.725	0.0907
353.15 K, 461.2 kPa, x2 = 0.658	0.0759
358.15 K, 175.1 kPa, x2 = 0.118	0.1524
358.15 K, 186.5 kPa, x2 = 0.222	0.1518
358.15 K, 248.6 kPa, x2 = 0.427	0.1273
358.15 K, 256.3 kPa, x2 = 0.51	0.1289
358.15 K, 415.6 kPa, x2 = 0.725	0.0908
358.15 K, 468.5 kPa, x2 = 0.658	0.0759
363.15 K, 177.7 kPa, x2 = 0.118	0.1524
363.15 K, 189.4 kPa, x2 = 0.222	0.1518
363.15 K, 252.3 kPa, x2 = 0.427	0.1273
363.15 K, 260.1 kPa, x2 = 0.51	0.1289
363.15 K, 422.1 kPa, x2 = 0.725	0.0908
363.15 K, 476 kPa, x2 = 0.658	0.0759
368.15 K, 180.3 kPa, x2 = 0.118	0.1524
368.15 K, 192.1 kPa, x2 = 0.222	0.1518
368.15 K, 256 kPa, x2 = 0.427	0.1274
368.15 K, 263.9 kPa, x2 = 0.51	0.1289
368.15 K, 428.6 kPa, x2 = 0.725	0.0908
368.15 K, 483.4 kPa, x2 = 0.658	0.0759
373.15 K, 182.9 kPa, x2 = 0.118	0.1525
373.15 K, 194.9 kPa, x2 = 0.222	0.1519
373.15 K, 259.8 kPa, x2 = 0.427	0.1274
373.15 K, 267.8 kPa, x2 = 0.51	0.129
373.15 K, 435.2 kPa, x2 = 0.725	0.0908
373.15 K, 490.9 kPa, x2 = 0.658	0.0759
378.15 K, 185.5 kPa, x2 = 0.118	0.1525
378.15 K, 197.7 kPa, x2 = 0.222	0.1519
378.15 K, 263.6 kPa, x2 = 0.427	0.1274
378.15 K, 271.7 kPa, x2 = 0.51	0.129
378.15 K, 441.7 kPa, x2 = 0.725	0.0908
378.15 K, 498.2 kPa, x2 = 0.658	0.076
383.15 K, 188.1 kPa, x2 = 0.118	0.1525
383.15 K, 200.5 kPa, x2 = 0.222	0.1519
383.15 K, 267.4 kPa, x2 = 0.427	0.1274
383.15 K, 275.5 kPa, x2 = 0.51	0.129
383.15 K, 448.3 kPa, x2 = 0.725	0.0909
383.15 K, 505.8 kPa, x2 = 0.658	0.076
